Source: publication PMC8968952, “Modulation of ERCC1-XPF Heterodimerization Inhibition via Structural Modification of Small Molecule Inhibitor Side-Chains” (Frontiers in Oncology, 2022)
“And” between values parts separate entries of the source, which are not always exact repeats. Equal values may be shown once.

Assays:
ERCC1-XPF = biological target: T1, ERCC1-XPF (Homo sapiens, UniProt Q92889); test: Steady state intrinsic fluorescence quenching binding assay; settings: excitation 295 nm, emission 330 nm
T1 construct: the final purity of the full-length ERCC1-XPF heterodimer was determined to be ~35%; His6; made in house; host or cells: E. coli BL21(DE3)
T1 sequence (Q92889 1-916): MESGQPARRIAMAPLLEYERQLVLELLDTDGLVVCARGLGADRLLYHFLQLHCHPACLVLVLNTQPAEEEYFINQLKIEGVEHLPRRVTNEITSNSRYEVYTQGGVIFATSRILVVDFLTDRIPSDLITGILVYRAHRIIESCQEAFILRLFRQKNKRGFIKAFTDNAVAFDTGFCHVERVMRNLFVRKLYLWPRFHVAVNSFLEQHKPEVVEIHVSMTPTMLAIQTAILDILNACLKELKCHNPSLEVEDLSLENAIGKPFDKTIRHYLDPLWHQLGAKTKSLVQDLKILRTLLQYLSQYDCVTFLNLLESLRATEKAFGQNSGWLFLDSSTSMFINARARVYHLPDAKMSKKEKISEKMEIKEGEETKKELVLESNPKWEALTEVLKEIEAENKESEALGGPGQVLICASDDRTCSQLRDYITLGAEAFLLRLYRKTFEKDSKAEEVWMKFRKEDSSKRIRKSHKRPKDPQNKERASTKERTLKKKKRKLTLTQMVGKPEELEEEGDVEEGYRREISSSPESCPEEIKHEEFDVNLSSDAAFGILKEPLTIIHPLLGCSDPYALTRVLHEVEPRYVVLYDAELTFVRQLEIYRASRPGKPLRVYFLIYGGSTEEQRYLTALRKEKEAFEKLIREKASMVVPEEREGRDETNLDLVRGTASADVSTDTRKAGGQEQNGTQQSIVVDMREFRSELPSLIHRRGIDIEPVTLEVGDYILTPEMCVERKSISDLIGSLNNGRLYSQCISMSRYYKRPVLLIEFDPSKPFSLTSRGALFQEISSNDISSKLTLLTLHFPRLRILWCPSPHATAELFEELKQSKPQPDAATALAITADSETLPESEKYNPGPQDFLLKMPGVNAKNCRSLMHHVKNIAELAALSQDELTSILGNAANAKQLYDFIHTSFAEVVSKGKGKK
Experimental: Steady-state fluorescence spectra were measured at room temperature on a PerkinElmer LS-55 spectrofluorometer (Freemont, CA) as previously described ([70]). In studying the effects of inhibitors on protein fluorescence intensities, additions to protein samples were made from inhibitor stock solutions in DMSO, keeping the protein dilution below 3%. Data were plotted using GraphPad Prism version 5.04 software (San Diego, California)
Investigation of the binding of compound 6 to ERCC1-XPF was carried out via intrinsic fluorescence spectroscopy. The tryptophan residues of ERCC1-XPF were irradiated at 295 nm and the emission at 330 nm was monitored. Upon addition of compound 6 quenching of the intrinsic fluorescence of the protein was observed, consistent with ligand binding to a protein. The binding affinity was determined by plotting emission at 330 nm against increasing concentration of compound 6 ( Figure 3C ).

[1] = biological target: T2, ERCC1-XPF heterodimer in A549 cells (Homo sapiens, UniProt Q92889); test: Proximity ligation assay of ERCC1-XPF heterodimerization; type: cell-based; settings: 2 µM, 24 h
T2 construct: endogenous in cells; host or cells: A549
T2 sequence (Q92889 1-916): T1 sequence (Q92889 1-916)
Experimental: A previously published protocol ([73]) was followed with minor modifications. Briefly, 3 x 10^4 A549 cells were seeded in each well of an 8-well Chamber Slide system (Ibidi. Fitchburg, WI) and allowed to adhere overnight. The cells were then treated with the inhibitor (2 μM prepared from a 1 mM stock in DMSO) or vehicle control (0.2% DMSO) and incubated for 24 h. Samples were fixed and processed for protein proximity ligation analysis (PLA) by the Duolink PLA assay kit (Sigma-Aldrich, Oakville, ON) using an ERCC1 antibody (A73368-100, 1/100; EpiGentek, Farmingdale, NY) and an XPF antibody (LS-C173159, 1/100; LifeSpan BioSciences, Seattle, WA). […] Images of the interaction of ERCC1 and XPF represented as red dots were analyzed using IMARIS 9.7 software (Oxford Instruments). Results are expressed as mean values from at least three experiments conducted independently in duplicate.
To confirm that compound 6 was able to disrupt the interaction between subunits in the ERCC1-XPF heterodimer in cells, we performed PLA using A549 lung cancer cells exposed to 2 µM compound 6 or DMSO vehicle for 24 h. […] In the presence of vehicle (0.2% DMSO) alone we observed an average of 75.7 ± 15.4 foci per cell whereas in the presence of compound 6 only an average of 3.1 ± 2.6 foci per cell were detected. […]

HCT-116 cells [2] = test: Clonogenic survival assay, cyclophosphamide treatment; type: cell-based, human
Experimental: […] The medium was then replaced with drug and inhibitor-free fresh medium. After incubation for another 9 days to allow for colony formation, the plates were stained with crystal violet, colonies were counted, and plating efficiency and surviving fraction were calculated. Data were plotted using GraphPad Prism version 5.04. software.

HCT-116 cells [3] = test: Cellular repair of cyclobutane pyrimidine dimers (cellular NER) after UVC; type: cell-based, human; settings: 2 μM
Experimental: We followed the protocol of Mirzayans et al. ([79]) with minor modifications as previously described ([70]). Inhibitor compounds were dissolved in DMSO and applied to a final DMSO concentration of 0.2% in media and 0.2% DMSO was used as the vehicle control. Mouse anti-thymine dimer monoclonal antibody (cat. no. MC-062, Kamiya Biomedical Company, Seattle, WA) was used for the immunofluorescence following UVC irradiation of the cells and fluorescent microscopic evaluation and measurement of fluorescence intensity were performed using MetaXpress, version 6.2.1.704, software (Molecular Devices, Sunnyvale, California). Data were plotted using GraphPad Prism version 5.04 software.
Immunofluorescent detection of cyclobutane pyrimidine dimers (CPD) generated in the DNA of HCT-116 cells after exposure to UVC radiation was used to measure NER. Our observations that approximately 80% of CPD were removed 24 hours post irradiation in the absence of any inhibitors mirrors previous observations ([70], [79]).

Compound: COc1ccc2nc3cc(Cl)ccc3c(Nc3ccc(O)c(CN4CCN(CCN(C(C)C)C(C)C)CC4)c3)c2c1 [Compound 6]
- Kd (ERCC1-XPF): 140 ± 10 nM
- ERCC1-XPF PLA foci per cell [1]: 3.1 ± 2.6 foci per cell and 3 foci per cell
- sensitization to cyclophosphamide (in words) (HCT-116 cells [2]; 0.5 μM 6, 10 at 1.0 μM or 0.5 μM): sensitized the cells to cyclophosphamide
- cell survival with cyclophosphamide (HCT-116 cells [2]; 0.5 μM compound, 50 μM cyclophosphamide): 62%
- cell survival at 250 μM cyclophosphamide (in words) (HCT-116 cells [2]; 0.5 μM compound, 250 μM cyclophosphamide): almost no cells surviving
- effect on CPD removal / cellular NER (in words) (HCT-116 cells [3]): significant inhibition of NER
